Experimental data: patent US20200023001A1, “GlycoFix (Structurally And Functionally Repaired Endothelial Glycocalyx)” (Northeastern University, priority 2018, published 2020)

Columns and labels:
[1] = system: RFPEC; assay: PEG-AuNP uptake by RFPEC under glycocalyx conditions (confocal red fluorescence); type: cell-based, rat; conditions: repaired glycocalyx (Hep III, then 59 μg/mL exogenous HS); 550 μg/mL PEG-AuNP, 16 hours
Procedure: (§1) RFPEC Culture. A rat fat pad endothelial cell (RFPEC) line^37 was utilized, originally isolated from rat epididymal fat pads by Dr. Mia Thi of Albert Einstein College of Medicine (Bronx, N.Y., USA). RFPECs were selected for their ability to naturally express a robust glycocalyx.^38 These ECs were cultured in tissue culture flasks at 37° C. and 5% CO2 in a humidified environment with Dulbecco's Modified Eagle's Medium (DMEM) supplemented with 10% fetal bovine serum (FBS) and 1% penicillin-streptomycin, all purchased from Thermo Fisher Scientific (Waltham, Mass., USA). For 3-(4,5-dimethylthiazol-2-yl)-5-(3-carboxymethoxyphenyl)-2-(4-sulfophenyl)-2H-tetrazolium (MTS) assays (Sigma-Aldrich Co., St Louis, Mo., USA), RFPECs were seeded at 3.7×10^4 cells/cm^2 in tissue culture-treated, 96-well plates (Falcon; Thermo Fisher Scientific) and imaged on a SpectraMax M3 plate reader to show cell viability and metabolic activity. […]
PEG-AuNP. […] After dialysis in 12-14 kDa molecular weight cutoff tubes (EMD Millipore, Billerica, Mass., USA) and lyophilization, an Alexa Fluor 647 N-hydroxysuccinimide (NHS) ester (succinimidyl ester) was conjugated onto the NH2 functional groups on the AuNP to allow for visualization under fluorescence. […] PEG-AuNP fluorescence activity was confirmed using a Jobin Yvon Fluoromax 4. […]

[2] = system: RFPEC glycocalyx (adsorbed BSA); assay: Whole glycocalyx thickness and coverage by BSA immunofluorescence (Example 2); type: cell-based, rat; conditions: Hep III 2 h then 16 h, with or without 59 μg/mL HS
Procedure: as §1, with “activity. For confocal imaging, RFPECs were seeded onto 12-mm diameter round glass cover slips (Thermo Fisher Scientific) at 1×10^4 cells/cm^2 in tissue culture-treated six-well plates (Falcon; Thermo Fisher Scientific).” for “activity.”
RFPEC glycocalyx treatments. […] The red fluorescence detected from conjugated Alexa Fluor 647 was attributed to AuNP within the RFPEC monolayers (details are given in the “Confocal imaging and analysis” section). […]

In the case of heparan sulfate [HS], the “PEG-AuNP uptake relative to cells with healthy, intact glycocalyx” value [1] is reported as 1.3±0.3 fold, the “whole glycocalyx (BSA) coverage of the EC layer” value [2] is reported as 75.2%+4.0% and the “whole glycocalyx (BSA) thickness” value ([2]; mean±SEM) is reported as 2.41±0.3 μm.
